Measured values from US6337333B1, “Method of treating autoimmune disease with fludarabine-5′-monophosphate” (priority 1992, dated 2002).

Assays:
[1] = test system: Type II collagen-induced arthritis; conditions: cited from earlier work
B lymphocytes = test: B lymphocyte proliferative response to mitogen after 18 hr drug pretreatment (3H-thymidine); format: cell-based, human; conditions: 18 hr pretreatment, FIG. 1B
Experimental: (§1) In FIG. 1, freshly isolated PBMC were enriched for T and B lymphocytes using Nylon Wool (see Materials and Methods, Example A). The enriched lymphocyte subpopulations were then incubated for 18 hrs at 37° C. with various concentrations of drug. At the end of the pretreatment period, the cell samples were washed, adjusted to 2×10^5 viable cells/ml, and cultured at 1×10^4/well in flat (B cells) or round (T cells) bottomed 96 well microtiter plates in […]. The T cells were incubated for 3 days with PHA-P ([…]) or Con A (5 μg/ml) and the B cells were cultured for 6 days with either PWM (2 μg/ml) or SAC ({fraction (1/60,000)}). 1 μCi of ^3H-thymidine was added per well during the last 18 hr of culture. The wells were then harvested onto glass fiber filters, and counted in 7 ml of Cytoscint (ICN) on the LKB 1219 Rackbeta scintillation counter. The results are expressed as the mean cpm of triplicate wells.
(§2) Peripheral blood mononuclear cells obtained from normal donors as packed leukocyte preparations were enriched for T and B lymphocytes and pretreated with drug for 18 hrs prior to mitogen stimulation.
(§3) Peripheral blood mononuclear cells enriched for either T or B lymphocytes were incubated for 18 hrs in complete S-10 medium at 37° C. in 12×75 mm culture tubes at 5×10^5 cells/ml. The cells were then washed in S-10 and cultured in triplicate for either 3 (T lymphocytes) or 6 (B lymphocytes) days at 2.5×10^4/well in round bottom 96-well microtiter plates in S-10 medium at 37° C. and a 5% CO2 humidified atmosphere. The wells were pulsed with 1 μCi 3H-thymidine for the last 18 hr of culture, harvested onto glass fiber filters, and counted with 7 ml Cytoscint with a LKB Rackbeta scintillation counter. The results are reported as “percent Suppression”:
(§4) % Suppression={1−(mean cpm exp./mean cpm stim control)}×100

T lymphocytes = test: T lymphocyte proliferative response to mitogen after 18 hr drug pretreatment (3H-thymidine); format: cell-based, human; conditions: 18 hr pretreatment, FIG. 1A
Experimental: as §1, §2, §3, §4

[2] = test system: IgM-RF and IgM production; conditions: therapeutic concentrations of drug; cited from earlier work

For `CC(C)(S)[C@@H](N)C(=O)O` [D-penicillamine], the effect on disease [1] is listed as “early onset of the disease”.

For `Nc1nc(F)nc2c1ncn2[C@@H]1O[C@H](CO)[C@@H](O)[C@@H]1O` [F], the “suppression of B lymphocyte's ability to respond to mitogen” value (B lymphocytes) was “suppress” and the “suppression of T lymphocyte's ability to respond to mitogen” value (T lymphocytes) was “suppress”.

In the case of `O=C([O-])c1ccccc1Nc1cc(Cl)ccc1C(=O)[O-].[Na+].[Na+]` [lobenzarit, disodium 4-chloro-2,2′-iminodibenzoate], the “production of IgM” value [2] is listed as “suppressed” and the “production of IgM-RF” value [2] is listed as “suppressed”.
